# Assay results as given in patent US10414811B2, “Protease-resistant lipidated GLP-1 analogs” (MEDIMMUNE LIMITED, priority 2015, dated 2019).
# pEC50: −log10 of the molar value. Read-outs that look alike come from different tables or passages of the source. Numbered stars: 1 amine (or outer) side, 2 acyl side, 3 side chain; on linkers, the order of the positions; unused ones are H or OH. Square brackets hold non-standard residues; d marks the D form. Side chains are listed from the residue outwards. Peptide text beside a SMILES is read from it. * marks the point of attachment. C18 diacid = O=C(O)CCCCCCCCCCCCCCCCC(=O)*; γGlu = O=C(O)[C@H](CCC(=O)[*:2])N[*:1]; Palmitoyl = CCCCCCCCCCCCCCCC(=O)*; αMeF = C[C@](N)(Cc1ccccc1)C(=O)O; αMeK = C[C@](N)(CCCCN)C(=O)O; Lauroyl = CCCCCCCCCCCC(=O)*; αMeS = C[C@](N)(CO)C(=O)O; AEEA = NCCOCCOCC(=O)O; Aib = CC(C)(N)C(=O)O
# Columns and labels:
# Format in all cases: cell-based
# [1] = biological target: T1, human GLP-1 receptor (GLP-1R) (Homo sapiens, UniProt P43220); assay: cAMP assay, human GLP-1R cells; settings: for EC50: mean of n1 and n2
# T1 construct: expressed in transfected cells
# Outline: (§1)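 Peptide-stimulated cAMP measured by two-step HTRF after a 30 min room-temperature incubation with receptor-expressing cells (hGLP-1R, hGIPR at 1×10^5 cells/ml; hGCGR at 2×10^5 cells/ml). Duplicate dilutions; EC50 from 4-parameter logistic fit of % Delta F.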
# [2] = biological target: T2, human glucagon receptor (GCGR) (Homo sapiens, UniProt P47871); assay: cAMP assay, human GCGR cells
# T2 construct: expressed in transfected cells
# Outline: as §1
# [3] = biological target: T3, human glucose-dependent insulinotropic peptide receptor (GIPR) (Homo sapiens, UniProt P48546); assay: cAMP assay, human GIPR cells
# T3 construct: expressed in transfected cells
# T3 sequence (P48546 22-466): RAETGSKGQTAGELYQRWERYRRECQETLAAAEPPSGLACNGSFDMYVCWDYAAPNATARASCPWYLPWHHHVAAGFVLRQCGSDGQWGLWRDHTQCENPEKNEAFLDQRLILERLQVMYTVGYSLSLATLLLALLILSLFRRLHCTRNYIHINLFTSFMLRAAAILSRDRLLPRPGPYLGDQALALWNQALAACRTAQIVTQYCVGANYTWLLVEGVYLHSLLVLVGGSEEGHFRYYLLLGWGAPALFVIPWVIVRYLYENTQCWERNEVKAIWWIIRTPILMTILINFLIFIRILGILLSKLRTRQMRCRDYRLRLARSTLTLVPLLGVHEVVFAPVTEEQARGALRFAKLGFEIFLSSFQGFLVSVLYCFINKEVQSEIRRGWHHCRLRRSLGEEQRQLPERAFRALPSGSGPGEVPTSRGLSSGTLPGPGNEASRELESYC
# Outline: as §1
# [4] = cAMP assay, first determination (n1), read-out: Primary assay EC50 GLP-1R n1
# [5] = cAMP assay, second determination (n2), read-out: Primary assay EC50 GLP-1R n2
# [6] = cAMP assay, first determination (n1), read-out: Primary assay EC50 Gluc-R (n1)
# [7] = cAMP assay, second determination (n2), read-out: Primary assay EC50 Gluc-R (n2)
# [8] = cAMP assay, first determination (n1), read-out: Primary assay EC50 GIP-R (n1)
# [9] = cAMP assay, second determination (n2), read-out: Primary assay EC50 GIP-R (n2)
# T1 sequence (P43220 24-463): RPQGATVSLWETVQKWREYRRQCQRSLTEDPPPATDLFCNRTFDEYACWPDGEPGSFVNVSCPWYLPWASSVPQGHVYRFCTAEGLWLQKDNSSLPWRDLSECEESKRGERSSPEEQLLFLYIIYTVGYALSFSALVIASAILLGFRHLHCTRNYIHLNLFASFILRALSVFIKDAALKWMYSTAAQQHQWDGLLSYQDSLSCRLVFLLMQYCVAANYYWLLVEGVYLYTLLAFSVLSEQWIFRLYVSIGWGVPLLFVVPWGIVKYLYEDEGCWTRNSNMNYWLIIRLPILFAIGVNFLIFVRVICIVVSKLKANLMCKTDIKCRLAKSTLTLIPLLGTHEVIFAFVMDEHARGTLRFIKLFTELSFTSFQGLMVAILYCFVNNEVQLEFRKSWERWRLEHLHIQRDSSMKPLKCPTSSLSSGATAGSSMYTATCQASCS
# T2 sequence (P47871 26-477): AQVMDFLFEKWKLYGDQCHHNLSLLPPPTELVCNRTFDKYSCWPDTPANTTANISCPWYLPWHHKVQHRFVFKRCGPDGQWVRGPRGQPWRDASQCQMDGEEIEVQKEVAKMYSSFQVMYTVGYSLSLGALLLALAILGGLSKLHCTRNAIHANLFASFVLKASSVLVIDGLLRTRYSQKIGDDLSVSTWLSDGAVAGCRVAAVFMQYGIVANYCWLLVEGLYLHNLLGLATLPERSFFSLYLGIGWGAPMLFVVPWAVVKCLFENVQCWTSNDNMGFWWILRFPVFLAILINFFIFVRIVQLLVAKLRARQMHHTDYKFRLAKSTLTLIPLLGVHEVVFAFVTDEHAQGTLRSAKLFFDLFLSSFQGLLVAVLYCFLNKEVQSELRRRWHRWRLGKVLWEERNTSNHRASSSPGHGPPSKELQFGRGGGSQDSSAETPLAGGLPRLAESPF
"EC50 ([1]; tris-lipidated peptides, read-out: Primary assay EC50 Mean pM GLP-1R) [pM]","pEC50 ([1]; tris-lipidated peptides, replicate n1, read-out: Primary assay EC50 GLP-1R n1)","pEC50 ([1]; tris-lipidated peptides, replicate n2, read-out: Primary assay EC50 GLP-1R n2)","pEC50 ([2]; tris-lipidated peptides, first replicate, read-out: Primary assay EC50 Gluc-R (n1))","pEC50 ([3]; tris-lipidated peptides, first replicate, read-out: Primary assay EC50 GIP-R (n1))","pEC50 [1, 4]","pEC50 [1, 5]",EC50 ([1]; read-out: Mean pM GLP-1R) [pM],"pEC50 [2, 6]","pEC50 [2, 7]","pEC50 [3, 8]","pEC50 [3, 9]",Compound
150,9.91,9.75,7.71,7.71,–,–,–,–,–,–,–,CCCCCCCCCCCC(=O)N[C@@H](CCC(=O)NCCOCCOCC(=O)NCCOCCOCC(=O)NCCCC[C@H](NC(=O)[C@H](CCC(=O)O)NC(=O)[C@H](CC(C)C)NC(=O)[C@H](CCCCNC(=O)COCCOCCNC(=O)COCCOCCNC(=O)CC[C@H](NC(=O)CCCCCCCCCCC)C(=O)O)NC(=O)[C@H](CO)NC(=O)[C@](C)(CO)NC(=O)[C@@H](NC(=O)[C@H](CC(=O)O)NC(=O)[C@H](CO)NC(=O)[C@@H](NC(=O)[C@](C)(Cc1ccccc1)NC(=O)[C@H](CO)NC(=O)CNC(=O)[C@H](CCC(=O)O)NC(=O)C(C)(C)NC(=O)[C@@H](N)Cc1c[nH]cn1)[C@@H](C)O)C(C)C)C(=O)N[C@@H](CCC(=O)O)C(=O)N[C@@H](C)C(=O)N[C@@H](C)C(=O)N[C@@](C)(CCCCN)C(=O)N[C@@H](CCC(=O)O)C(=O)N[C@@H](Cc1ccccc1)C(=O)N[C@H](C(=O)N[C@@H](CCCCNC(=O)COCCOCCNC(=O)COCCOCCNC(=O)CC[C@H](NC(=O)CCCCCCCCCCC)C(=O)O)C(=O)N[C@@H](Cc1ccccc1)C(=O)N[C@H](C(=O)N[C@H](C(=O)N[C@@H](CCC(=O)O)C(=O)NCC(=O)NCC(N)=O)C(C)C)C(C)C)[C@@H](C)CC)C(=O)O [compound 447] (H-H[Aib]EGS[αMeF]TSDV[αMeS]SK([AEEA-AEEA-γGlu-Lauroyl])LEK([AEEA-AEEA-γGlu-Lauroyl])EAA[αMeK]EFIK([AEEA-AEEA-γGlu-Lauroyl])FVVEGG-NH2; N-terminus assumed)
–,–,–,–,–,9.89,10.28,89.9,≤ 7.55,≤ 7.55,≤ 7.55,≤ 7.55,CCCCCCCCCCCCCCCCCC(=O)N[C@@H](CCC(=O)NCCCC[C@H](NC(=O)[C@@H](NC(=O)[C@@H](NC(=O)[C@](C)(Cc1ccccc1)NC(=O)[C@H](C)NC(=O)[C@@H](NC(=O)[C@](C)(Cc1ccccc1)NC(=O)[C@H](CCC(=O)O)NC(=O)[C@](C)(CCCCN)NC(=O)[C@H](C)NC(=O)[C@H](C)NC(=O)[C@H](CCC(=O)O)NC(=O)CNC(=O)[C@H](CCC(=O)O)NC(=O)[C@H](CC(C)C)NC(=O)[C@](C)(Cc1ccccc1)NC(=O)[C@H](CO)NC(=O)[C@](C)(CO)NC(=O)[C@@H](NC(=O)[C@H](CC(=O)O)NC(=O)[C@H](CO)NC(=O)[C@@H](NC(=O)[C@](C)(Cc1ccccc1)NC(=O)[C@H](CO)NC(=O)CNC(=O)[C@H](CCC(=O)O)NC(=O)C(C)(C)NC(=O)[C@@H](N)Cc1c[nH]cn1)[C@@H](C)O)C(C)C)[C@@H](C)CC)C(C)C)C(C)C)C(=O)NCC(=O)NCC(N)=O)C(=O)O [compound 182]
–,–,–,–,–,8.39,8.50,3640,≤ 7.60,≤ 7.60,≤ 7.60,≤ 7.60,CC[C@H](C)[C@H](NC(=O)[C@](C)(Cc1ccccc1)NC(=O)[C@H](CCC(=O)O)NC(=O)[C@](C)(CCCCN)NC(=O)[C@H](C)NC(=O)[C@H](C)NC(=O)[C@H](CCC(=O)O)NC(=O)CNC(=O)[C@H](CCC(=O)O)NC(=O)[C@H](CC(C)C)NC(=O)[C@](C)(Cc1ccccc1)NC(=O)[C@H](CO)NC(=O)[C@](C)(CO)NC(=O)[C@@H](NC(=O)[C@H](CCCCNC(=O)COCCOCCNC(=O)COCCOCCNC(=O)CC[C@H](NC(=O)CCCCCCCCCCCCCCCCC(=O)O)C(=O)O)NC(=O)[C@H](CO)NC(=O)[C@@H](NC(=O)[C@](C)(Cc1ccccc1)NC(=O)[C@H](CO)NC(=O)CNC(=O)[C@H](CCC(=O)O)NC(=O)C(C)(C)NC(=O)[C@@H](N)Cc1c[nH]cn1)[C@@H](C)O)C(C)C)C(=O)N[C@@H](C)C(=O)N[C@@](C)(Cc1ccccc1)C(=O)N[C@H](C(=O)N[C@H](C(=O)N[C@@](C)(CCCCN)C(=O)NCC(=O)NCC(N)=O)C(C)C)C(C)C [compound 120] (H-H[Aib]EGS[αMeF]TSK([AEEA-AEEA-γGlu-C18 diacid])V[αMeS]S[αMeF]LEGEAA[αMeK]E[αMeF]IA[αMeF]VV[αMeK]GG-NH2)
–,–,–,–,–,8.14,8.77,4500,≤ 7.04,≤ 7.55,≤ 7.04,≤ 7.55,CCCCCCCCCCCCCCCC(=O)N[C@@H](CCC(=O)NCCCC[C@H](NC(=O)[C@H](C)NC(=O)[C@H](C)NC(=O)[C@H](CCC(=O)O)NC(=O)CNC(=O)[C@H](CCC(=O)O)NC(=O)[C@H](CC(C)C)NC(=O)[C@](C)(Cc1ccccc1)NC(=O)[C@H](CO)NC(=O)[C@](C)(CO)NC(=O)[C@@H](NC(=O)[C@H](CC(=O)O)NC(=O)[C@H](CC(=O)O)NC(=O)[C@@H](NC(=O)[C@](C)(Cc1ccccc1)NC(=O)[C@H](CO)NC(=O)CNC(=O)[C@H](CCC(=O)O)NC(=O)C(C)(C)NC(=O)[C@@H](N)Cc1c[nH]cn1)[C@@H](C)O)C(C)C)C(=O)N[C@@H](CCC(=O)O)C(=O)N[C@@](C)(Cc1ccccc1)C(=O)N[C@H](C(=O)N[C@@H](C)C(=O)N[C@@](C)(Cc1ccccc1)C(=O)N[C@H](C(=O)N[C@H](C(=O)N[C@@](C)(CCCCN)C(=O)NCC(=O)NCC(N)=O)C(C)C)C(C)C)[C@@H](C)CC)C(=O)O [compound 37] (H-H[Aib]EGS[αMeF]TDDV[αMeS]S[αMeF]LEGEAAK([γGlu-Palmitoyl])E[αMeF]IA[αMeF]VV[αMeK]GG-NH2)
–,–,–,–,–,6.92,6.92,119000,6.92,6.92,9.80,10.10,CC[C@H](C)[C@H](NC(=O)[C@H](CO)NC(=O)[C@](C)(Cc1ccccc1)NC(=O)[C@H](CC(=O)O)NC(=O)[C@H](CO)NC(=O)[C@@H](NC(=O)[C@](C)(Cc1ccccc1)NC(=O)[C@H](CO)NC(=O)CNC(=O)[C@H](CCC(=O)O)NC(=O)C(C)(C)NC(=O)[C@@H](N)Cc1ccc(O)cc1)[C@@H](C)CC)C(=O)N[C@@H](C)C(=O)N[C@@H](CCSC)C(=O)N[C@@H](CC(=O)O)C(=O)N[C@@H](CCCCN)C(=O)N[C@H](C(=O)N[C@@H](Cc1c[nH]cn1)C(=O)N[C@@H](CCC(N)=O)C(=O)N[C@@H](CCC(N)=O)C(=O)N[C@@H](CC(=O)O)C(=O)N[C@@](C)(Cc1ccccc1)C(=O)N[C@H](C(=O)N[C@@H](CC(N)=O)C(=O)N[C@@](C)(Cc1ccccc1)C(=O)N[C@@H](CC(C)C)C(=O)N[C@@H](CC(C)C)C(=O)N[C@@H](C)C(=O)N[C@@H](CCC(N)=O)C(=O)N[C@@H](CCCCN)C(N)=O)C(C)C)[C@@H](C)CC [compound 15] (H-Y[Aib]EGS[αMeF]ISD[αMeF]SIAMDKIHQQD[αMeF]VN[αMeF]LLAQK-NH2; N-terminus assumed)
–,–,–,–,–,10.02,10.38,69,≤ 7.55,≤ 7.55,≤ 7.55,≤ 7.55,CCCCCCCCCCCCCCCCCC(=O)N[C@@H](CCC(=O)NCCCC[C@H](NC(=O)[C@H](C)NC(=O)[C@H](C)NC(=O)[C@H](CCC(=O)O)NC(=O)CNC(=O)[C@H](CCC(=O)O)NC(=O)[C@H](CC(C)C)NC(=O)[C@](C)(Cc1ccccc1)NC(=O)[C@H](CO)NC(=O)[C@](C)(CO)NC(=O)[C@@H](NC(=O)[C@H](CC(=O)O)NC(=O)[C@H](CO)NC(=O)[C@@H](NC(=O)[C@](C)(Cc1ccccc1)NC(=O)[C@H](CO)NC(=O)CNC(=O)[C@H](CCC(=O)O)NC(=O)C(C)(C)NC(=O)[C@@H](N)Cc1c[nH]cn1)[C@@H](C)O)C(C)C)C(=O)N[C@@H](CCC(=O)O)C(=O)N[C@@](C)(Cc1ccccc1)C(=O)N[C@H](C(=O)N[C@@H](C)C(=O)N[C@@](C)(Cc1ccccc1)C(=O)N[C@H](C(=O)N[C@H](C(=O)N[C@@](C)(CCCCN)C(=O)NCC(=O)NCC(N)=O)C(C)C)C(C)C)[C@@H](C)CC)C(=O)O [compound 146]
–,–,–,–,–,10.49,10.49,32,≤ 7.00,≤ 7.00,≤ 7.00,≤ 7.00,CC(C)C[C@H](NC(=O)[C@](C)(Cc1ccccc1)NC(=O)[C@H](CO)NC(=O)[C@H](CO)NC(=O)[C@@H](NC(=O)[C@H](CC(=O)O)NC(=O)[C@H](CO)NC(=O)[C@@H](NC(=O)[C@](C)(Cc1ccccc1)NC(=O)[C@H](CO)NC(=O)CNC(=O)[C@H](CCC(=O)O)NC(=O)C(C)(C)NC(=O)[C@@H](N)Cc1c[nH]cn1)[C@@H](C)O)C(C)C)C(=O)N[C@@H](CCC(=O)O)C(=O)NCC(=O)N[C@@H](CCC(=O)O)C(=O)N[C@@H](C)C(=O)N[C@@H](C)C(=O)N[C@@](C)(CCCCN)C(=O)N[C@@H](CCC(=O)O)C(=O)N[C@@](C)(Cc1ccccc1)C(=O)N[C@H](C(=O)N[C@@H](C)C(=O)N[C@@](C)(Cc1ccccc1)C(=O)N[C@H](C(=O)N[C@H](C(=O)N[C@@](C)(CCCCN)C(=O)NCC(=O)NCC(N)=O)C(C)C)C(C)C)C(C)C [compound 11] (H-H[Aib]EGS[αMeF]TSDVSS[αMeF]LEGEAA[αMeK]E[αMeF]VA[αMeF]VV[αMeK]GG-NH2)
